# Experimental data as given in patent US20050222200A1, “AMIDE DERIVATIVES AS ION CHANNEL LIGANDS AND PHARMACEUTICAL COMPOSITIONS AND METHODS OF USING THE SAME” (Renovis, Inc., priority 2003, published 2005).
# Molecular target: T1, VR1 (Homo sapiens, UniProt Q8NER1)
# T1 construct: expressed in transfected cells; host or cells: 293 cells ("293 neurons" [sic])
# Assay: High throughput calcium imaging assay of VR1 antagonists (Fura2, Flex Station, 96 well); note: test concentration or dose not given here
# Type: cell-based
# Conditions: Table 1 activity class
# T1 sequence (Q8NER1 whole entry, species assumed): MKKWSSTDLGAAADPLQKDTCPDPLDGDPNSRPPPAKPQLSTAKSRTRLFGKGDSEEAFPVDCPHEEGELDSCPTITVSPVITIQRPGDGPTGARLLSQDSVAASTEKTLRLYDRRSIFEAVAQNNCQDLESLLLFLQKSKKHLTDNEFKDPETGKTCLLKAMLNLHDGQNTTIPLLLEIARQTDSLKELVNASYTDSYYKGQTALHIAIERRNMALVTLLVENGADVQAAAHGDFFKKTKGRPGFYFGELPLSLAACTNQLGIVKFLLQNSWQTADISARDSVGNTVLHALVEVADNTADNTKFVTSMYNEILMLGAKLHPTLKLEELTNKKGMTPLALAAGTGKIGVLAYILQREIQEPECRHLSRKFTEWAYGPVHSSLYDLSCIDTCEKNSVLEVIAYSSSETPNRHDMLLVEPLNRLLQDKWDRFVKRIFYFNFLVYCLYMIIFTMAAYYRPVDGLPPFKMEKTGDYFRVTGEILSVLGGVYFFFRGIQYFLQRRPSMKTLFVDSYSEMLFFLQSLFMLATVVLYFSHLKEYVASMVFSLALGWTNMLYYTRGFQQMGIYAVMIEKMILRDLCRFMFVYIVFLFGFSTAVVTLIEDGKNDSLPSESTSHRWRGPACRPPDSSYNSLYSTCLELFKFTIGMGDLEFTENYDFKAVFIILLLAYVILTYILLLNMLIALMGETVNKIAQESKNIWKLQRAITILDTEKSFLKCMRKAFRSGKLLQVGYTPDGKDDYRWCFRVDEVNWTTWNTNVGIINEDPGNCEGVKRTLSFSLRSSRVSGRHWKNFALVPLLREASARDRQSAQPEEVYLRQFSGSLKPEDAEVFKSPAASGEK
row,SMILES,inhibition of calcium ion influx induced by capsaicin stimulation
1,CC(C)(C)/C=C/c1ccc(C(=O)NCCN2CCNCC2)cc1 [Compound 60],+ (compound exhibited 0-25% inhibition of calcium ion influx induced by capsaicin stimulation)
2,CN(C)c1cccc(NC(=O)c2ccc(/C=C/C(C)(C)C)cc2)c1 [Compound 61],++++ (compound exhibited 75% or greater inhibition of calcium ion influx induced by capsaicin stimulation)
3,CCN(CC)c1ccc(NC(=O)c2ccc(/C=C/C(C)(C)C)cc2)cc1 [Compound 62],++++ (compound exhibited 75% or greater inhibition of calcium ion influx induced by capsaicin stimulation)
4,Cc1ccnc(NC(=O)c2ccc(/C=C/C(C)(C)C)cc2)c1 [Compound 64],+ (compound exhibited 0-25% inhibition of calcium ion influx induced by capsaicin stimulation)
5,CN1CCC(NC(=O)c2ccc(/C=C/C(C)(C)C)cc2)CC1 [Compound 65],+ (compound exhibited 0-25% inhibition of calcium ion influx induced by capsaicin stimulation)
6,CC(C)(C)/C=C/c1ccc(C(=O)Nc2ccc3[nH]ccc3c2)cc1 [Compound 66],++ (compound exhibited 25-50% inhibition of calcium ion influx induced by capsaicin stimulation)
7,CC(C)(C)/C=C/c1ccc(C(=O)Nc2ccncn2)cc1 [Compound 67],+ (compound exhibited 0-25% inhibition of calcium ion influx induced by capsaicin stimulation)
8,Cc1cccnc1NC(=O)c1ccc(/C=C/C(C)(C)C)cc1 [Compound 68],+++ (compound exhibited 50-75% inhibition of calcium ion influx induced by capsaicin stimulation)
9,CC(C)(C)/C=C/c1ccc(C(=O)Nc2ccc(Br)cn2)cc1 [Compound 69],+ (compound exhibited 0-25% inhibition of calcium ion influx induced by capsaicin stimulation)
10,CC(C)(C)/C=C/c1ccc(C(=O)Nc2ccc(C(F)(F)F)cn2)cc1 [Compound 70],+ (compound exhibited 0-25% inhibition of calcium ion influx induced by capsaicin stimulation)
11,CC(C)(C)/C=C/c1ccc(C(=O)Nc2ncc(C(F)(F)F)cc2Cl)cc1 [Compound 71],+ (compound exhibited 0-25% inhibition of calcium ion influx induced by capsaicin stimulation)
12,CCc1ccnc(NC(=O)c2ccc(/C=C/C(C)(C)C)cc2)c1 [Compound 72],+ (compound exhibited 0-25% inhibition of calcium ion influx induced by capsaicin stimulation)
13,CC(C)(C)/C=C/c1ccc(C(=O)Nc2ccc(Cl)nc2)cc1 [Compound 74],+++ (compound exhibited 50-75% inhibition of calcium ion influx induced by capsaicin stimulation)
14,COc1ccc(NC(=O)c2ccc(/C=C/C(C)(C)C)cc2)cn1 [Compound 75],++ (compound exhibited 25-50% inhibition of calcium ion influx induced by capsaicin stimulation)
15,CC(C)(C)/C=C/c1ccc(C(=O)Nc2ccnc(Cl)c2)cc1 [Compound 76],++++ (compound exhibited 75% or greater inhibition of calcium ion influx induced by capsaicin stimulation)
16,Cc1nccc(NC(=O)c2ccc(/C=C/C(C)(C)C)cc2)n1 [Compound 77],+ (compound exhibited 0-25% inhibition of calcium ion influx induced by capsaicin stimulation)
17,CC(C)(C)/C=C/c1ccc(C(=O)Nc2ccc3ncccc3c2)cc1 [Compound 78],++++ (compound exhibited 75% or greater inhibition of calcium ion influx induced by capsaicin stimulation)
18,CC(C)(C)/C=C/c1ccc(C(=O)NCc2cccnc2)cc1 [Compound 80],+ (compound exhibited 0-25% inhibition of calcium ion influx induced by capsaicin stimulation)
19,CN(C)c1ccc(CNC(=O)c2ccc(/C=C/C(C)(C)C)cc2)cc1 [Compound 81],+ (compound exhibited 0-25% inhibition of calcium ion influx induced by capsaicin stimulation)
20,COc1ccccc1CNC(=O)c1ccc(/C=C/C(C)C)cc1 [Compound 87],+ (compound exhibited 0-25% inhibition of calcium ion influx induced by capsaicin stimulation)
21,CC(C)/C=C/c1ccc(C(=O)NCc2ccco2)cc1 [Compound 88],++ (compound exhibited 25-50% inhibition of calcium ion influx induced by capsaicin stimulation)
22,CC(C)/C=C/c1ccc(C(=O)NCc2ccncc2)cc1 [Compound 93],+ (compound exhibited 0-25% inhibition of calcium ion influx induced by capsaicin stimulation)
23,CC(C)/C=C/c1ccc(C(=O)NC(c2ccccc2)c2ccccc2)cc1 [Compound 95],++ (compound exhibited 25-50% inhibition of calcium ion influx induced by capsaicin stimulation)

row,SMILES,inhibition of calcium ion influx induced by capsaicin stimulation
1,CC(C)/C=C/c1ccc(C(=O)NCCc2ccccc2Cl)cc1 [Compound 98],+ (compound exhibited 0-25% inhibition of calcium ion influx induced by capsaicin stimulation)
2,CC(C)/C=C/c1ccc(C(=O)Nc2ccncc2)cc1 [Compound 105],++ (compound exhibited 25-50% inhibition of calcium ion influx induced by capsaicin stimulation)
3,CC(C)/C=C/c1ccc(C(=O)Nc2cccnc2)cc1 [Compound 106],++ (compound exhibited 25-50% inhibition of calcium ion influx induced by capsaicin stimulation)
4,CC(C)/C=C/c1ccc(C(=O)NCC2CCCO2)cc1 (stereo not drawn) [Compound 109],++ (compound exhibited 25-50% inhibition of calcium ion influx induced by capsaicin stimulation)
5,CC(C)/C=C/c1ccc(C(=O)NCc2ccc3c(c2)OCO3)cc1 [Compound 111],+++ (compound exhibited 50-75% inhibition of calcium ion influx induced by capsaicin stimulation)
6,CC(C)/C=C/c1ccc(C(=O)NCCN2CCOCC2)cc1 [Compound 112],++ (compound exhibited 25-50% inhibition of calcium ion influx induced by capsaicin stimulation)
7,CC(C)/C=C/c1ccc(C(=O)NCCc2ccc(S(N)(=O)=O)cc2)cc1 [Compound 116],+ (compound exhibited 0-25% inhibition of calcium ion influx induced by capsaicin stimulation)
8,COc1cc(CNC(=O)c2ccc(/C=C/C(C)C)cc2)cc(OC)c1OC [Compound 117],+ (compound exhibited 0-25% inhibition of calcium ion influx induced by capsaicin stimulation)
9,CC(C)/C=C/c1ccc(C(=O)NCc2ccccn2)cc1 [Compound 120],+ (compound exhibited 0-25% inhibition of calcium ion influx induced by capsaicin stimulation)
10,COc1ccc(CCNC(=O)c2ccc(/C=C/C(C)C)cc2)cc1OC [Compound 121],+++ (compound exhibited 50-75% inhibition of calcium ion influx induced by capsaicin stimulation)
11,CC(C)/C=C/c1ccc(C(=O)NCCc2c[nH]c3ccccc23)cc1 [Compound 123],+ (compound exhibited 0-25% inhibition of calcium ion influx induced by capsaicin stimulation)
12,CC(C)/C=C/c1ccc(C(=O)NCCN2CCNCC2)cc1 [Compound 125],++++ (compound exhibited 75% or greater inhibition of calcium ion influx induced by capsaicin stimulation)
13,CCNC(=O)c1ccc(/C=C/C(C)C)cc1 [Compound 126],++ (compound exhibited 25-50% inhibition of calcium ion influx induced by capsaicin stimulation)
14,CC(C)/C=C/c1ccc(C(=O)NCc2cccs2)cc1 [Compound 127],++ (compound exhibited 25-50% inhibition of calcium ion influx induced by capsaicin stimulation)
15,CCN(CC)c1ccc(NC(=O)c2ccc(/C=C/C(C)C)cc2)cc1 [Compound 130],+++ (compound exhibited 50-75% inhibition of calcium ion influx induced by capsaicin stimulation)
16,COc1ccccc1NC(=O)c1ccc(/C=C/C(C)C)cc1 [Compound 132],+ (compound exhibited 0-25% inhibition of calcium ion influx induced by capsaicin stimulation)
17,CC(C)/C=C/c1ccc(C(=O)Nc2ccccc2Cl)cc1 [Compound 136],+ (compound exhibited 0-25% inhibition of calcium ion influx induced by capsaicin stimulation)
18,CC(C)/C=C/c1ccc(C(=O)NCC(C)C)cc1 [Compound 139],+ (compound exhibited 0-25% inhibition of calcium ion influx induced by capsaicin stimulation)
19,COc1ccc(CNC(=O)c2ccc(/C=C/C(C)C)cc2)cc1OC [Compound 142],+ (compound exhibited 0-25% inhibition of calcium ion influx induced by capsaicin stimulation)
20,CC(C)/C=C/c1ccc(C(=O)NCc2cccc(F)c2)cc1 [Compound 143],+ (compound exhibited 0-25% inhibition of calcium ion influx induced by capsaicin stimulation)
21,COc1ccc(NC(=O)c2ccc(/C=C/C(C)C)cc2)cc1Cl [Compound 145],+ (compound exhibited 0-25% inhibition of calcium ion influx induced by capsaicin stimulation)
22,CC(C)/C=C/c1ccc(C(=O)Nc2ccc(Cl)c(C(F)(F)F)c2)cc1 [Compound 148],+ (compound exhibited 0-25% inhibition of calcium ion influx induced by capsaicin stimulation)
